Test results published in patent US8420658B2, “Use of Carboxyamidotriazole (CAI) orotate in macular degeneration” (Tactical Therapeutics Inc, priority 2006, dated 2013).

Key:
[1] = system: Human umbilical vein endothelial cells (HUVEC); assay: Proliferation assay for endothelial cells (HUVEC), cell count after 3 days of treatment; format: cell-based; details: HUVEC treated with three different concentrations for 3 days; triplicate; FIG. 1
Procedure: FIG. 1 illustrates the results of the proliferation assay for endothelial cells (HUVEC).
Human umbilical vein endothelial cells (HUVEC) were treated with three different concentrations of Carboxyamidotriazole or 5 amino 1,2,3-triazole orotate (CAI Orotate) for 3 days. The cell number of each culture under different treatment conditions was counted. The assays were done in triplicate and the data are expressed as mean +/− standard deviation.

[2] = system: Dunning rat model for prostate cancer; details: orotate salt of CAI compared with CAI; from U.S. Pat. Nos. 5,861,406 and 5,912,346; cited from earlier work

For `NC(=O)c1nnn(Cc2cc(Cl)c(C(=O)c3ccc(Cl)cc3)c(Cl)c2)c1N.O=C(O)c1cc(=O)[nH]c(=O)[nH]1` [CAI Orotate, Carboxyamidotriazole or 5 amino 1,2,3-triazole orotate], the “Inhibition of angiogenesis (HUVEC cell number)” value [1] is given as “inhibited angiogenesis in a dose related manner” and the “Antitumor effect compared with CAI” value [2] is given as “improved antitumor effect”.
